Experimental data taken from patent publication US9962427B2, “Treatment of right ventricular dysfunction due to pressure overload” (OTTAWA HOSPITAL RESEARCH INSTITUTE, priority 2016, dated 2018).

How the values were obtained:
rats = experiment: In vivo growth reversal analysis (ECHO, HW:BW, CD31 capillary density) after 2 week delivery and follow-on; set-up: species or system rat; details: for ventricle wall thickness at 2 weeks: CT-1 6 μg/kg/hr or PE 10 mg/kg/day for 2 weeks
Source text: FIGS. 3A, 3B, and 3C. […] Arrows (in upper panels) point to myocardial wall (RVLW). Dotted lines (in lower panels) show inner ventricle chambers.
FIGS. 4A and 4B. Beneficial/physiologic cardiac adaptive compensation and reversion to baseline cardiac dimensions is observed upon 2 weeks of hCT1 administration in vivo followed by hCT1 withdrawal for 4 weeks. Identical follow-on procedure and analysis as conducted in FIG. 3 above. FIG. 4A Whole hearts and Hematoxylin & Eosin (H & E) stained sections and quantification of the heart weight to body weight (HW:BW) ratio 6 weeks post-treatment with hCT1 or PE.
CT-1 was tested in vivo to determine whether its administration would induce a myocardial adaptive remodeling characteristic of physiologic compensation (FIGS. 3A, 3B, and 3C). Osmotic minipumps containing PBS control (Ctrl) or hCT1 (6 μg/kg/hr) or Isoproterenol (ISO, 1 mg/kg/day) were implanted subcutaneously in rats. ISO is a beta-adrenergic receptor agonist and continuous infusion with ISO in rats is known to induce pathological cardiac hypertrophy and cardiomyocyte damage (in both the right and left ventricles) which progresses to heart failure (Morisco et al (2001) J Mol Cell Cardiol 33:561-573 and Grimm et al (1998) Cardiovascular Research 37:91-100). After 2 weeks of treatment, M-mode ECHO analysis was used to assess myocardial structure/function (FIG. 3A). In this model, an increased right ventricle lateral wall (RVLW) thickness indicates the presence of myocardiocytes growth, and an increased ratio of the right to left ventricle internal diameters (RVID/LVID) is an indicator of pathologic hypertrophy. An increased RVLW thickness but constant or reduced RVID:LVID ratio is an indicator of adaptive compensatory RV remodeling. Both hCT1 and ISO induced a significant increase in RVLW thickness (12% and 32% fold increase, respectively) compared to control rats (n=3; * and **, P<0.05). […] An in vivo growth reversal analysis was also conducted. Following a 2 week delivery of CT-1 protein (6 μg/kg/hr) or PE (10 mg/kg/day) as the pathologic control in this case, animals were then assessed for cardiac structure/function at a 6 week follow-on period. […] Collectively, these studies support the contention that CT-1 elicits a reversible physiologic cardiac adaptive compensation.

[1] = system: Vascular Endothelial Growth Factor—VEGF; experiment: VEGF expression by immunofluorescence in primary cardiomyocytes; assay type: cell-based; details: 24 hours; hCT1 0.5 nM, PE 100 μM, PAC-1 25 μM
Method: FIGS. 8A and 8B. […] FIG. 8B Microarray analysis of primary cardiomyocytes stimulated with hCT1 (0.5 nM) for 24 hours.
Applicant explored the role of CT-1 as a pro-angiogenic factor in the adaptive hypertrophic response. Physiologic cardiac adaptive compensation is associated with an increase in capillary density, whereas pathologic response is characterized by a decline or no change at all. Importantly, the compensatory vascular growth/angiogenesis that occurs during physiologic adaptive compensation is permissive for the increased workload that accompanies physiologic adaptive compensation. Despite this adaptation, little information exists regarding the mechanisms that match the demand for angiogenesis to the beneficial form of myocardial growth. The rapid in vitro and in vivo adaptive compensation in response to CT-1 supports a hypothesis that the cardiomyocyte itself may act in a paracrine fashion, to signal and promote angiogenesis. To address this conjecture, Applicant examined whether CT-1 treated primary cardiomyocytes produced vascular endothelial growth factor (VEGF), an angiogenic factor known to be produced and secreted by cardiomyocytes. Primary cardiomyocytes were incubated with control serum-free media (Ctrl, SF media) or stimulated with hCT1 (0.5 nM), PE (100 μM), or PAC-1 (25 μM) for 24 hours. Immunofluorescence was used to detect α-actinin, Vascular Endothelial Growth Factor—VEGF, and nuclei. […] Based on these observations Applicant next conducted a comparative gene expression analysis of control (non-stimulated) versus CT-1 treated (0.5 nM, 24 hours) primary cardiomyocytes, using the Affymetrix Rat gene 2.0ST array.

cardiomyocytes = system: cardiomyocytes
Method: FIG. 7B Quantitation of cell viability analysis as shown in (A). FIG. 7C Quantification of PI cell viability FACS analysis following a 24 hrs treatment of cardiomyocytes with H2O2 in the presence or absence of hCT1. Pre-treatment with PI3K inhibitor (LY294002, 50 μM) before H2O2 was also tested.
Cardiomyocytes were treated with control serum-free media or with H2O2 (300 μM, 1 hr) to induce cell death in the presence or absence of hCT1 (0.5 nM). After 24 hrs, cells were incubated with the cell viability marker Propidium Iodide (PI) (1 μg/mL) and analyzed by FACS (Ex: 535 nm, Em: 617 nm) for viable cells; i.e. cells inside the gated region of the side scatter (SS) versus PI plot (FIG. 7A). […] The PI3K pathway is a critical feature of physiological cardiac adaptive compensation and is a key protective feature distinguishing it from pathological adaptive compensation. Therefore, cardiomyocytes were pre-treated with a PI3K inhibitor (LY294002, 50 μM) before CT-1/H2O2 treatment.

[2] = 2 week delivery, 6 week follow-on

Molecule	RVID/LVID ratio at 6 weeks post-treatment compared to control rats (rats; [2])	heart weight to body weight ratio at 6 weeks post-treatment (rats; [2])	wall thickness / cardiac dimensions at 6 weeks post-treatment (rats; [2])	cardiac capillary density (CD31 immunostained right ventricle sections) (rats; 6 weeks post-treatment, compared to CT-1 treated and control animals)	ventricle wall thickness at 2 weeks (rats)	VEGF expression (immunofluorescence) [1]	viability improved vs. H2O2 (cardiomyocytes; H2O2 in the presence of hCT1 (FIG. 7C)) [%]	increase in viability upon pre-treatment (cardiomyocytes; hCT1 0.5 nM, 1 hour H2O2 300 μM, viability at 24 hours (FIG. 7B)) [%]
CNC[C@H](O)c1cccc(O)c1 [PE, Phenylephrine]	maintained their increased RVID/LVID ratio	increased heart weight to body weight ratio	retaining the substantial increase in wall thickness	significant decrease in cardiac capillary density	increase in (both) ventricle wall thickness	less VEGF expression		
hCT1: Recombinant human CT1 protein; 201 amino acid sequence, GenBank Accession Nos AAD12173 and AAA85229 (human) (protein, UniProt Q16619 1-201, looked up) Cardiotrophin-1: MSRREGSLEDPQTDSSVSLLPHLEAKIRQTHSLAHLLTKYAEQLLQEYVQLQGDPFGLPSFSPPRLPVAGLSAPAPSHAGLPVHERLRLDAAALAALPPLLDAVCRRQAELNPRAPRLLRRLEDAARQARALGAAVEALLAALGAANRGPRAEPPAATASAASATGVFPAKVLGLRVCGLYREWLSRTEGDLGQLLPGGSA			complete return to baseline cardiac dimensions for wall thickness		increase in (both) ventricle wall thickness	rapid increase in the expression of VEGF	154	~34
